Laboratory results reported in US20120022121A1, “INDOLES, DERIVATIVES AND ANALOGS THEREOF AND USES THEREFOR” (priority 2007, published 2012).

Columns and labels:
tubulin [1] = system: T1, tubulin; test: In vitro binding assay by spin column; set-up: species or system bovine; settings: vinblastine-binding site, 37° C., 1 h
T1 construct: IC50 of microtubule formation (tubulin polymerization); other: cell free, turbidity 340 nm, 40 min

tubulin [2] = test: In vitro binding assay by spin column; set-up: species or system bovine; settings: colchicine-binding site, 37° C., 1 h
K562 = test: Growth inhibition assay (MTT, 96 h); assay type: cell-based; settings: Homo sapiens, K562 (parental)
Description: (§1) MTT (3-(4,5-dimethylthiazol-2-yl)-2,5-diphenyltetrazolium bromide) assay was also used for the leukemia cell lines. […] Cells were stained with SRB solution or MTT solution.

cyclin B1, Cdc25C, Cdc2 = test: Western blot of G2-M regulators; assay type: cell-based, human; settings: PC-3 cells, 24 h treatment
Experimental: Treated cells were lysed in cold lysis buffer (20 mM Tris-HCl, pH 7.5, 150 mM NaCl, 1 mM Na2 EDTA, 1% Triton x-100, and freshly added Na3VO4 (2 mM), NaF (20 mM) and complete protease inhibitor cocktail). For each sample, an aliquot (20 to 40 μg) of total protein was loaded and run on a SDS-Page gel. Protein was transferred to nitrocellulose membranes (Bio-Rad Laboratories, Hercules, Calif.), blocked with 5% non-fat milk, incubated with primary antibody overnight at 4° C., and then incubated with secondary antibody at rt for 1 h. ECL™ (GE Healthcare Bio-Sciences Corp., Piscataway, N.J.) was used for detection. The band intensity was measured by densitometry using TotalLab TL100 Software v2006 (Nonlinear Dynamics Ltd., Newcastle upon Tyne, UK).

[3] = system: MDR cell lines with high levels of P-gp, MRP1, MRP2, or BCRP; test: Cytotoxicity assay using MDR cell lines; assay type: cell-based, human; settings: MRP1, MRP2, BCRP over-expressing cells
Description: as §1
Since ABC transporters are thought to be one of the major causes of MDR of anticancer drugs, the antitumoral efficacy of 68 was compared with other anticancer drugs in a cytotoxicity assay using MDR cell lines with high levels of P-gp, MRP1, MRP2, or BCRP (Table 1). […] In contrast, the cytotoxicity efficacy of 68 against cancer cells was unaltered by the MDR phenotypes.

PC-3 xenografts = test: In vivo antitumor efficacy, PC-3 xenograft; settings: for tumor growth inhibition: PC-3 xenograft, 2 days/week, 4 weeks
MES-SA = test: Growth inhibition assay (96 h); assay type: cell-based; settings: Homo sapiens, MES-SA (parental)
Description: as §1

HEK293-pcDNA3-10 = test: Growth inhibition assay (96 h); assay type: cell-based, human; settings: Homo sapiens, HEK293-pcDNA3-10 (control for BCRP)
Description: as §1

HEK293-482R2 = test: Growth inhibition assay (96 h); assay type: cell-based, human
PC-3 xenograft = test: Antitumor activity in PC-3 xenograft; assay type: in vivo, Balb/c mice; settings: 50, 100, or 150 mg/kg/d, 5 days on/2 days off
Experimental: PC-3 tumor cells (2×10^6 cells) were suspended in saline and injected S.C. in both flanks of recipient mice (n=15). Tumor size was measured every other day and volume calculated as V=π/6*(length)x(width)^2 (75). […] Tumor growth and body weight was monitored every other day for the remainder of the study.

[4] = Subchronic toxicity in ICR mice; assay type: in vivo
Description: The maximally tolerated dose (MTD) in the mouse was identified. […] Body weight changes and morbidity in treated animals were used as a direct measure of toxicity.

LNCaP and PC-3 cells = test: Anti-histone ELISA for apoptosis; assay type: cell-based, human; settings: 100 nM; LNCaP 24 h, PC-3 48 h
Experimental: Cell viability (LNCaP, PC-3 prostate, DU145, PPC-1, and TSU-Pr1 prostate cancer cell lines, HT-29 colon cancer cell line, and MCF-7 breast cancer cell line) was quantitated using the sulforhodamine B (SRB) assay after 96 h coincubation with different concentrations of compound in 96-well plates. Cell viability of leukemia cells (K562 and doxorubicin-resistant K562/Dox) was quantitated by MTT assay after 96 h coincubation with different concentrations of compound in 96-well plates. Drug-induced apoptosis was determined by anti-histone ELISA assay and DNA laddering. Cell cycle progression was assessed by propidium iodide staining and fluorescence-activated cell sorting (FACS) analysis. In vitro tubulin polymerization assay was determined by CytoDYNAMIX ScreenTM3 (CDS-03) kits according to the manufacturer's instructions. Anti-apoptosis protein (Bcl-2 and Bcl-xl) and pro-apoptosis protein (Bax) were examined in LNCaP and PC-3 after 24 h incubation with different concentrations of compound 13 by Western blot assay. In vivo PC-3 xenograft studies were conducted by i.v. dosing of 50 mg/kg, 100 mg/kg and 150 mg/kg for 2 weeks.
100 nM of compound 13 was incubated with LNCaP for 24 h and PC-3 for 48 h. […] The results are expressed as enrichment factor (Enrichment factor=OD of treated cells/OD from control cells). […]

HT-29 = test: Cell viability SRB assay, 96 h; assay type: cell-based; settings: Homo sapiens, HT-29, 96 h
Outline: (§2)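 Cells seeded at 800–5,000/well in medium with 10% FBS and exposed to compound at 0–100 μM (DMSO <0.5%) in quadruplicate. Incubation 96 h at 37 °C, 5% CO2. Viability read by sulforhodamine B staining.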

MCF-7 = test: Cell viability SRB assay, 96 h; assay type: cell-based; settings: Homo sapiens, MCF7; MCF-7, 96 h
Outline: as §2

For `COc1cc(C(=O)c2cccc(-c3cc4ccccc4[nH]3)c2)cc(OC)c1OC` [Compound 68, [3-(1H-Indol-2-yl)-phenyl]-(3,4,5-trimethoxy-phenyl)-methanone], the “displacement of [3H]vinblastine from tubulin” value (tubulin [1]) was “not able to displace”, the “[3H]podophyllotoxin binding to tubulin” value (tubulin [2]) was “inhibited” and the IC50 (K562) was 23.6 ± 2.4 nM. The “concentration at which cyclin B1 accumulation, Cdc25C (Ser216) and Cdc2 dephosphorylation were observed” value (cyclin B1, Cdc25C, Cdc2) was “higher than 50 nM”, the “cytotoxicity efficacy against cancer cells with MDR phenotypes” value [3] was “unaltered” and the tolerability (PC-3 xenografts; PC-3 xenograft mice, 5 and 10 mg/kg twice weekly) was “well tolerated”. For the same compound, the tumor growth inhibition (PC-3 xenografts; 5 mg/kg i.p.) was 36%, the tumor growth inhibition (PC-3 xenografts; 10 mg/kg i.p.) was 68% and the IC50 (MES-SA) was 31.5 ± 2.9 nM. The IC50 (HEK293-pcDNA3-10) was 13.5 ± 1.6 nM, the “resistance factor (ratio of IC50 resistant subline to parental cell line)” value (HEK293-482R2; HEK293-482R2 (BCRP) vs HEK293-pcDNA3-10) was “(1.0)” and the IC50 (HEK293-482R2; Homo sapiens, HEK293-482R2, BCRP over-expressed, 96 h) was 13.6 ± 1.3 nM.
For `O=C(c1cccc(-c2cc3ccccc3[nH]2)c1)c1cc2ccccc2[nH]1` [Compound 13, (1H-indol-2-yl)-[3-(1H-indol-2-yl)phenyl]methanone], the tumor growth (PC-3 xenograft) was “suppressed tumor growth in a dose-dependent manner”, the tolerability ([4]; 50, 100 and 200 mg/kg S.C., 4 weeks, 5-days on/2 days off) was “generally well tolerated” and the “morbidity or rate of gain in body weight vs control” value ([4]; 50 or 100 mg/kg S.C., 4 weeks) was “no significant difference”. The “less body weight gain as compared to control animals” value ([4]; highest dose (200 mg/kg) S.C., 4-week treatment) was 20%, the “apoptosis by anti-histone ELISA” value (LNCaP and PC-3 cells) was “detected apoptosis” and the IC50 (HT-29) was 62 nM. It also gave an IC50 (MCF-7) of 162 nM.
